Source: patent US20250340591A1, “COMPOSITION FOR PREVENTING OR TREATING INFLAMMATORY BOWEL DISEASE CONTAINING NOVEL COMPOUND” (ANYGEN CO., LTD., priority 2021, published 2025)
Square brackets hold non-standard residues; d marks the D form. Peptide text beside a SMILES is read from it. * marks the point of attachment. His(Trt) = N[C@@H](Cc1cn(C(c2ccccc2)(c2ccccc2)c2ccccc2)cn1)C(=O)O; His(τ-CHPh2) = N[C@@H](Cc1cn(C(c2ccccc2)c2ccccc2)cn1)C(=O)O; Biotin = O=C1N[C@H]2[C@H](CS[C@H]2CCCCC(=O)*)N1; Tyr(3-Cl) = N[C@@H](Cc1ccc(O)c(Cl)c1)C(=O)O; dPhe(4-Br) = N[C@H](Cc1ccc(Br)cc1)C(=O)O; dPhe(4-Cl) = N[C@H](Cc1ccc(Cl)cc1)C(=O)O; dPhe(4-Me) = Cc1ccc(C[C@@H](N)C(=O)O)cc1; Phe(4-Me) = Cc1ccc(C[C@H](N)C(=O)O)cc1; dPhe(4-F) = N[C@H](Cc1ccc(F)cc1)C(=O)O; d3Pal = N[C@H](Cc1cccnc1)C(=O)O; Octanoyl = CCCCCCCC(=O)*

These compounds were tested against T1, GPR39 (Homo sapiens, UniProt O43194) (assay: luciferase assay system (SRE luciferase reporter gene, CV-1 cells expressing GPR39)).
T1 sequence (O43194 1-453): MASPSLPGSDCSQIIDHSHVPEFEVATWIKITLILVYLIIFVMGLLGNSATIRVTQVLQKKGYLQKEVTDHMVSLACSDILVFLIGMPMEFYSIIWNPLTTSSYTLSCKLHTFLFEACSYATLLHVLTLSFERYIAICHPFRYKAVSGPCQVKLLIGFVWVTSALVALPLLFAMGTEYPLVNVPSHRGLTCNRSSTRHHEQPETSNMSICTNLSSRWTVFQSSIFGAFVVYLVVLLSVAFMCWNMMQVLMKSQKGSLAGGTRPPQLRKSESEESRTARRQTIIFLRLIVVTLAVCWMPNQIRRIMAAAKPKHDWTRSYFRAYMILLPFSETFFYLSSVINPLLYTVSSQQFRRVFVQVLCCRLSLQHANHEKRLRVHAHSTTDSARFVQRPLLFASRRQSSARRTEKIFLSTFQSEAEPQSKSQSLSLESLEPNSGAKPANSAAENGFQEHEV
Format: cell-based
Parameters: expressed in transfected cells; host or cells: CV-1 fibroblast cell line (Korea Cell Line Bank), adenoviral transduction at 50 MOI

Going from CCCCCCCC(=O)NCCCC[C@H](NC(=O)[C@@H](N)Cc1cn(Cc2ccc(-c3ccccc3-c3nnn[nH]3)cc2)cn1)C(=O)N[C@H](Cc1ccc(C)cc1)C(=O)N[C@@H](Cc1ccc(O)cc1)C(=O)O [HKFY-77, ((R)-2-((S)-2-((S)-3-(1-((2′-(1H-tetrazol-5-yl)-[1,1′-biphenyl]-4-yl)methyl)-1H-imidazol-4-yl)-2-aminopropanamido)-6-octanamidohexanamido)-3-(p-tolyl)propanoyl)-L-tyrosine] to CCCCCCCC(=O)NCCCC[C@H](NC(=O)[C@@H](N)Cc1cn(CCc2ccccc2)cn1)C(=O)N[C@@H](Cc1ccccc1)C(=O)N[C@@H](Cc1ccc(O)cc1)C(=O)O [HKFY-9, N6-octanoyl-N2-(Nt-phenethyl-L-histidyl)-L-lysyl-L-phenylalanyl-L-tyrosine], the “ECmax (−fold induction over basal)” value rises from 11.6 ± 2.14 fold induction over basal to 21 ± 2.52 fold induction over basal.

CCCCCCCC(=O)NCCCC[C@H](NC(=O)[C@@H](N)CC1=CN(CCC2CCCCC2)CN1CCC1CCCCC1)C(=O)N[C@@H](Cc1ccccc1)C(=O)N[C@@H](Cc1ccc(O)cc1)C(=O)O [HKFY-8, N2-((S)-2-amino-3-(1,3-bis(2-cyclohexylethyl)-2,3-dihydro-1H-imidazol-4-yl)propanoyl)-N6-octanoyl-L-lysyl-L-phenylalanyl-L-tyrosine] and CCCCCCCC(=O)NCCCC[C@H](NC(=O)[C@@H](N)CC1=CN(CCc2ccccc2)CN1CCc1ccccc1)C(=O)N[C@@H](Cc1ccccc1)C(=O)N[C@@H](Cc1ccc(O)cc1)C(=O)O [HKFY-6, N2-((S)-2-amino-3-(1,3-diphenethyl-2,3-dihydro-1H-imidazol-4-yl)propanoyl)-N6-octanoyl-L-lysyl-L-phenylalanyl-L-tyrosine] are within error of each other in “ECmax (−fold induction over basal)” value: 17.3±1.22 fold induction over basal for the first, 15 ± 2.12 fold induction over basal for the second.

Going from CCCCCCCC(=O)NCCCC[C@H](NC(=O)[C@@H](N)Cc1cn(C(c2ccccc2)(c2ccccc2)c2ccccc2)cn1)C(=O)N[C@@H](Cc1ccc(O)cc1)C(=O)N[C@@H](Cc1ccc(O)cc1)C(=O)O [HKFY-48, N6-octanoyl-N2-(Nt-trityl-L-histidyl)-L-lysyl-L-tyrosyl-L-tyrosine] (H-[His(Trt)]K(Octanoyl)YY-OH) to CCCCCCCC(=O)NCCCC[C@H](NC(=O)[C@@H](N)Cc1cn(C(c2ccccc2)(c2ccccc2)c2ccccc2)cn1)C(=O)N[C@H](Cc1ccc(Cl)cc1)C(=O)N[C@H](Cc1ccc(O)cc1)C(=O)O [HKFY-15, ((R)-2-((S)-2-((S)-2-amino-3-(1-trityl-1H-imidazol-4-yl)propanamido)-6-octanamidohexanamido)-3-(4-chlorophenyl)propanoyl)-D-tyrosine] (H-[His(Trt)]K(Octanoyl)[dPhe(4-Cl)][dY]-OH), the “ECmax (−fold induction over basal)” value rises from 14.4 ± 2.7 fold induction over basal to 24.7 ± 2.6 fold induction over basal.

Going from CCCCCCCC(=O)NCCCC[C@H](NC(=O)[C@@H](N)Cc1cn(C(c2ccccc2)c2ccccc2)cn1)C(=O)N[C@H](Cc1ccc(C)cc1)C(=O)N[C@@H](Cc1ccc(O)c(Cl)c1)C(=O)O [HKFY-67, (S)-2-((R)-2-((S)-2-((S)-2-amino-3-(1-benzhydryl-1H-imidazol-4-yl)propanamido)-6-octanamidohexanamido)-3-(p-tolyl)propanamido)-3-(3-chloro-4-hydroxyphenyl)propanoic acid] (H-[His(τ-CHPh2)]K(Octanoyl)[dPhe(4-Me)][Tyr(3-Cl)]-OH) to CCCCCCCC(=O)NCCCC[C@H](NC(=O)[C@@H](N)Cc1cn(C(c2ccccc2)c2ccccc2)cn1)C(=O)N[C@@H](Cc1ccccc1)C(=O)N[C@@H](Cc1ccc(O)cc1)C(=O)O [HKFY-33, N2-(Nt-benzhydryl-L-histidyl)-N6-octanoyl-L-lysyl-L-phenylalanyl-L-tyrosine] (H-[His(τ-CHPh2)]K(Octanoyl)FY-OH), the “ECmax (−fold induction over basal)” value rises from 10.2 ± 1.51 fold induction over basal to 20 ± 0.57 fold induction over basal.

C=C(CCCCCCC)NCCCC[C@H](NC(=O)[C@@H](N)Cc1cn(C(c2ccccc2)(c2ccccc2)c2ccccc2)cn1)C(=O)N[C@H](Cc1ccc(Cl)cc1)C(=O)N[C@@H](Cc1ccc(O)cc1)C(=O)O [HKFY-13, ((R)-2-((S)-2-((S)-2-amino-3-(1-trityl-1H-imidazol-4-yl)propanamido)-6-(non-1-en-2-ylamino)hexanamido)-3-(4-chlorophenyl)propanoyl)-L-tyrosine] and CCCCCCCC(=O)NCCCC[C@H](NC(=O)[C@@H](N)Cc1cn(C(c2ccccc2)(c2ccccc2)c2ccccc2)cn1)C(=O)N[C@H](Cc1ccc(F)cc1)C(=O)N[C@@H](Cc1ccc(O)cc1)C(=O)O [HKFY-28, ((R)-2-((S)-2-((S)-2-amino-3-(1-trityl-1H-imidazol-4-yl)propanamido)-6-octanamidohexanamido)-3-(4-fluorophenyl)propanoyl)-L-tyrosine] (H-[His(Trt)]K(Octanoyl)[dPhe(4-F)]Y-OH) are within error of each other in “ECmax (−fold induction over basal)” value: 25.7 ± 2.4 fold induction over basal for the first, 22.95 ± 2.58 fold induction over basal for the second.

Going from CCCCCCCC(=O)NCCCC[C@H](NC(=O)[C@@H](N)Cc1cn(C(c2ccccc2)(c2ccccc2)c2ccccc2)cn1)C(=O)N[C@@H](Cc1ccccc1)C(=O)N[C@@H](Cc1ccc(O)cc1)C(=O)N[C@@H](CO)C(=O)N[C@@H](CC(=O)O)C(=O)N[C@@H](CCC(N)=O)C(=O)N[C@@H](CCC(N)=O)C(=O)N[C@@H](C)C(=O)N[C@@H](CCCNC(=N)N)C(=O)N[C@@H](Cc1ccccc1)C(N)=O [HKFY-38, (3S,6S,9S,12S,15S)-15-((S)-2-amino-3-(1-trityl-1H-imidazol-4-yl)propanamido)-12-benzyl-3-(((6S,9S,12S,15S)-1,18-diamino-6-(((S)-1-amino-1-oxo-3-phenylpropan-2-yl)carbamoyl)-12-(3-amino-3-oxopropyl)-1-imino-9-methyl-8,11,14,18-tetraoxo-2,7,10,13-tetraazaoctadecan-15-yl)carbamoyl)-9-(4-hydroxybenzyl)-6-(hydroxymethyl)-5,8,11,14,21-pentaoxo-4,7,10,13,20-pentaazaoctacosanoic acid] (H-[His(Trt)]K(Octanoyl)FYSDQQARF-NH2) to CCCCCCCC(=O)NCCCC[C@H](NC(=O)[C@@H](N)Cc1cn(C(c2ccccc2)(c2ccccc2)c2ccccc2)cn1)C(=O)N[C@@H](Cc1ccccc1)C(=O)N[C@@H](Cc1ccc(O)cc1)C(=O)N[C@@H](CCC(N)=O)C(=O)N[C@@H](CC(N)=O)C(=O)N[C@@H](CCC(N)=O)C(=O)N[C@@H](C)C(=O)N[C@@H](CCCNC(=N)N)C(=O)N[C@@H](Cc1ccccc1)C(N)=O [HKFY-43, (S)-N1-((S)-1-(((S)-1-(((S)-1-amino-1-oxo-3-phenylpropan-2-yl)amino)-5-guanidino-1-oxopentan-2-yl)amino)-1-oxopropan-2-yl)-2-((2S,5S,8S,11S,14S)-2-(2-amino-2-oxoethyl)-14-((S)-2-amino-3-(1-trityl-1H-imidazol-4-yl)propanamido)-5-(3-amino-3-oxopropyl)-11-benzyl-8-(4-hydroxybenzyl)-4,7,10,13,20-pentaoxo-3,6,9,12,19-pentaazaheptacosanamido)pentanediamide] (H-[His(Trt)]K(Octanoyl)FYQNQARF-NH2), the “ECmax (−fold induction over basal)” value falls from 16.5 ± 0.02 fold induction over basal to 12.1 ± 0.02 fold induction over basal.

Going from CCCCCCCC(=O)NCCCC[C@H](NC(=O)[C@@H](N)Cc1cn(C(c2ccccc2)(c2ccccc2)c2ccccc2)cn1)C(=O)N[C@H](Cc1ccc(Br)cc1)C(=O)N[C@@H](Cc1ccc(O)cc1)C(=O)O [HKFY-29, ((R)-2-((S)-2-((S)-2-amino-3-(1-trityl-1H-imidazol-4-yl)propanamido)-6-octanamidohexanamido)-3-(4-bromophenyl)propanoyl)-L-tyrosine] (H-[His(Trt)]K(Octanoyl)[dPhe(4-Br)]Y-OH) to CCCCCCCC(=O)NCCCC[C@H](NC(=O)[C@@H](N)Cc1cn(C(c2ccccc2)(c2ccccc2)c2ccccc2)cn1)C(=O)N[C@H](Cc1cccnc1)C(=O)N[C@@H](Cc1ccc(O)cc1)C(=O)O [HKFY-73, ((R)-2-((S)-2-((S)-2-amino-3-(1-trityl-1H-imidazol-4-yl)propanamido)-6-octanamidohexanamido)-3-(pyridin-3-yl)propanoyl)-L-tyrosine] (H-[His(Trt)]K(Octanoyl)[d3Pal]Y-OH), the “ECmax (−fold induction over basal)” value falls from 26.8 ± 1.87 fold induction over basal to 11.6 ± 2.3 fold induction over basal.

CCCCCCCC(=O)NCCCC[C@H](NC(=O)[C@H](Cc1cn(C(c2ccccc2)c2ccccc2)cn1)NC(=O)CCCC[C@@H]1SC[C@@H]2NC(=O)N[C@@H]21)C(=O)N[C@@H](Cc1ccc(C)cc1)C(=O)N[C@@H](Cc1ccc(O)cc1)C(=O)O [HKFY-72, ((S)-2-((S)-2-((S)-3-(1-benzhydryl-1H-imidazol-4-yl)-2-(5-((3aS,4S,6aR)-2-oxohexahydro-1H-thieno[3,4-d]imidazol-4-yl)pentanamido)propanamido)-6-octanamidohexanamido)-3-(p-tolyl)propanoyl)-L-tyrosine] (Biotin-[His(τ-CHPh2)]K(Octanoyl)[Phe(4-Me)]Y-OH) and CCCCCCCC(=O)NCCCC[C@H](N)C(=O)N[C@@H](Cc1ccccc1)C(=O)N[C@@H](Cc1ccc(O)cc1)C(=O)O [HKFY-54, N6-octanoyl-L-lysyl-L-phenylalanyl-L-tyrosine] (H-Lys(Octanoyl)-Phe-Tyr-OH) are within error of each other in “ECmax (−fold induction over basal)” value: 10.4 ± 1.12 fold induction over basal for the first, 7.8 ± 2.5 fold induction over basal for the second.
